In one assay the target is Melanocortin receptor 4 (Homo sapiens, UniProt P32245). The experiment in a line: MC4R antagonist potency on cAMP, dose response, cell-based, TR-FRET, biased antagonists (AID 602298).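 Further: antagonist potency against agonist-stimulated cAMP production.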 It counts as functional.
The target of assay [1] is T1, Microphthalmia-associated transcription factor (Homo sapiens, UniProt O75030).
T1 sequence (O75030 whole entry): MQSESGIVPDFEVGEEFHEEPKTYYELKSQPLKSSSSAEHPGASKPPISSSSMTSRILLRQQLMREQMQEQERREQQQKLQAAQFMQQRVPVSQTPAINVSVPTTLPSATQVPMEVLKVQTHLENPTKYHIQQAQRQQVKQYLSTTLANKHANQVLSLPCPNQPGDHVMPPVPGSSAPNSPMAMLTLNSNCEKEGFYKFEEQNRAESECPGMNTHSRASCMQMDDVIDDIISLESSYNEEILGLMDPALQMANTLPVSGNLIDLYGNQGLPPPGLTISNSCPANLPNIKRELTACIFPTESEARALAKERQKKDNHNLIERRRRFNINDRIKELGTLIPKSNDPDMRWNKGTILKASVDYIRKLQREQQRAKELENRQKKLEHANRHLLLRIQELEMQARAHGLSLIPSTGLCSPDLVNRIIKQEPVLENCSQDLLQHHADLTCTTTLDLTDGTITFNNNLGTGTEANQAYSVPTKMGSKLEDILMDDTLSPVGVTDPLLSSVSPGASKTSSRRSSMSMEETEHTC
The assay is described as follows: TRPM1 promoter luciferase signal decrease, dose response, MITF inhibitor project, cell-based, SK-MEL-5, cherry-picked, set 3 (AID 493073).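 Further: SK-MEL-5 melanoma cells with luciferase driven by the MITF target TRPM1 promoter.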 It counts as functional.

A short description of assay [2]: nonselective inhibitors of cellular cAMP signaling, dose response, counter-screen for MC4R biased antagonist project, cell-based, TR-FRET cAMP detection (AID 602305).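 Further: U2OS cells stimulated with forskolin near its EC80 as the cAMP inducer; potency is for inhibition of forskolin-stimulated cAMP signaling.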 It is filed as functional.
Assay [3] in a line: Luminescence Cell-Based Dose Retest to Confirm Inhibitors of Cancer Stem Cells. [Related pubchem assays (depositor defined):AID2717, AID2721]. It is filed as functional. The conditions noted are these: Homo sapiens.
Assay [4] concerns the target T2, Orexin/Hypocretin receptor type 1 (Homo sapiens, UniProt O43613). The assay is described as follows: Homogeneous Time Resolved Fluorescence (HTRF)-based cell-based high throughput dose response assay for antagonists of the orexin 1 receptor (OX1R; HCRTR1). [Related pubchem assays (depositor defined):AID434989, AID435008, AID463079, AID485270, AID492963, AID492964, AID492965, AID493232, AID504717, AID504718]. It is filed as functional.

Assay [5] concerns the target T2, Orexin/Hypocretin receptor type 1. The experiment in a line: Fluorescence-based cell-based high throughput dose response assay for antagonists of the orexin 1 receptor (OX1R; HCRTR1). [Related pubchem assays (depositor defined):AID434989, AID435008, AID463079, AID485270, AID492963, AID492964, AID492965, AID493232, AID504717, AID504718]. It counts as functional.
The nature of assay [6]: Counterscreen for antagonists of the orexin 1 receptor (OX1R; HCRTR1): Fluorescence-based cell-based high throughput dose response assay to identify antagonists of the parental CHO cell line. [Related pubchem assays (depositor defined):AID434989, AID435008, AID463079, AID485270, AID492963, AID492964, AID492965, AID493232, AID504699, AID504701]. It counts as functional.
The target of assay [7] is T3, Orexin receptor type 2 (Homo sapiens, UniProt O43614). The assay is described as follows: Counterscreen assay for antagonists of the orexin 1 receptor (OX1R; HCRTR1): Fluorescence-based cell-based dose response assay for antagonists of the orexin 2 receptor (OX2R; HCRTR2), run by assay provider. It is filed as functional.
Another assay has as its system CHO-K1. The assay is described as follows: Counterscreen for antagonists of the orexin 1 receptor (OX1R; HCRTR1): Homogeneous time resolved fluorescence (HTRF)-based cell-based dose response assay to identify antagonists of the parental CHO-K1 cell line. [Related pubchem assays (depositor defined):AID434989, AID435008, AID463079, AID485270, AID492963, AID492964, AID492965, AID493232, AID504699, AID504701]. The conditions noted are these: Cricetulus griseus. It is filed as functional.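 Further: potency for inhibition of ATP-stimulated IP1 production as antagonists.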

In assay [8] the target is T3, Orexin receptor type 2. The experiment in a line: Counterscreen assay for antagonists of the orexin 1 receptor (OX1R; HCRTR1): Homogeneous Time Resolved Fluorescence (HTRF)-based cell-based dose response assay for antagonists of the orexin 2 receptor (OX2R; HCRTR2), run by assay provider. It is filed as functional.
Assay [9] addresses Cell division cycle 7-related protein kinase (Homo sapiens, UniProt O00311). It is filed as functional.
The target in the next assay is Wee1-like protein kinase (Homo sapiens, UniProt P30291). The assay is described as follows: Navigating the Kinome. Panel member name: WEE1. It is filed as functional.
The target in another assay is Aurora kinase B (Homo sapiens, UniProt Q96GD4). It is filed as functional.
A further assay has as its target Aurora kinase A (Homo sapiens, UniProt O14965). It is filed as functional.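 Further: value from the Navigating the Kinome kinase panel profiling, panel entry STK6.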
Assay [10] deals with Vascular endothelial growth factor receptor 2 (Homo sapiens, UniProt P35968). It counts as functional.
Assay [11] has as its target Melanin-concentrating hormone receptor 1 (Homo sapiens, UniProt Q99705). The assay is described as follows: Late-stage fluorescence-based counterscreen for antagonists of the G-protein coupled receptor 7 (GPR7): cell-based dose response assay to identify antagonists of the melanin-concentrating hormone receptor 1 (MCHR1) Set 5. It counts as functional.
Assay [12] deals with Neuropeptides B/W receptor type 1 (Homo sapiens, UniProt P48145). The experiment in a line: GPR7 antagonist potency, late-stage follow-up, cell-based, fluorescence, dose response, set 5 (AID 588566). It is filed as functional.
The target in assay [13] is Vascular endothelial growth factor receptor 1 (Homo sapiens, UniProt P17948). It is filed as functional.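 Further: measured within a kinome-wide profiling panel, FLT1 as the panel member.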
Assay [14] deals with Dual specificity tyrosine-phosphorylation-regulated kinase 1A (Homo sapiens, UniProt Q13627). It counts as functional.
Assay [15] addresses Death-associated protein kinase 3 (Homo sapiens, UniProt O43293). It is filed as functional.
For the next assay, the target named is LIM domain kinase 1 (Homo sapiens, UniProt P53667). The experiment in a line: Navigating the Kinome. Panel member name: LIMK1. It counts as functional.
The nature of assay [16]: THP-1 cell cytotoxicity, cytotoxicity control, set 4 (AID 504911). It counts as functional. As to conditions: Mycobacterium tuberculosis.
The nature of assay [17]: Vero cell cytotoxicity, dose response, cytotoxicity control for M. tuberculosis growth inhibitor project, Vero cells, purified and synthesized compounds, set 4 (AID 504854). It counts as functional. As to conditions: Mycobacterium tuberculosis.
Assay [18] addresses Glycogen synthase kinase-3 beta (Homo sapiens, UniProt P49841). The assay is described as follows: Inhibition of Human GSK-3 beta Activity Measured in Biochemical System Using Microfluidics - 2063-05_Inhibitor_Dose_DryPowder_Activity_Set2. [Related pubchem assays (depositor defined):AID2709].
Assay [19] concerns the target Glycogen synthase kinase-3 alpha (Homo sapiens, UniProt P49840). The experiment in a line: Inhibition of Human GSK-3 alpha Activity Measured in Biochemical System Using Microfluidics - 2063-06_Inhibitor_Dose_DryPowder_Activity_Set2. [Related pubchem assays (depositor defined):AID2709].

Experimental findings from ChEMBL document CHEMBL1201862, “PubChem BioAssay data set” (2004) are described below.

The source made the active and inactive calls.

T3 sequence (O43614 whole entry): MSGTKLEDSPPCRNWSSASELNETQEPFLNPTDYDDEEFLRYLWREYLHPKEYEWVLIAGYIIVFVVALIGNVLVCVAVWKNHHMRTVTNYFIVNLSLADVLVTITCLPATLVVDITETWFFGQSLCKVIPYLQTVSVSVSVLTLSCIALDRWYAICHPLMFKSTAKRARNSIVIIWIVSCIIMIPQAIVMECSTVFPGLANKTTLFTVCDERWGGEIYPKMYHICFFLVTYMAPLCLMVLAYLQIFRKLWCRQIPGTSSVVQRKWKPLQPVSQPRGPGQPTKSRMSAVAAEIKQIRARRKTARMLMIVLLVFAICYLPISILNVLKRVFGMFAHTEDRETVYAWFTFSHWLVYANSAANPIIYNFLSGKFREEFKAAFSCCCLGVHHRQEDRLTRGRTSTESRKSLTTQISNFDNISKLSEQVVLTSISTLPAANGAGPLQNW
T2 sequence (O43613 whole entry): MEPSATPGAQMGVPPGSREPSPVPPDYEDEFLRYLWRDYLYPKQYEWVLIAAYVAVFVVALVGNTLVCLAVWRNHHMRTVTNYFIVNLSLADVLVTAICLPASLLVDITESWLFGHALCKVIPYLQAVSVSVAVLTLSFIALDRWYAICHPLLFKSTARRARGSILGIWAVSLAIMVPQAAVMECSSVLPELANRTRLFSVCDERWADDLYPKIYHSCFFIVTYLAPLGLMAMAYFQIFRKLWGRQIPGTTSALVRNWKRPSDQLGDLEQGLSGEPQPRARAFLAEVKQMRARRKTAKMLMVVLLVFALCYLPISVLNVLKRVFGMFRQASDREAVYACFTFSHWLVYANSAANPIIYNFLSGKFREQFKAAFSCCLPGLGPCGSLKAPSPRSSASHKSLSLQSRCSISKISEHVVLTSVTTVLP
Sequence of Neuropeptides B/W receptor type 1 (P48145 whole entry): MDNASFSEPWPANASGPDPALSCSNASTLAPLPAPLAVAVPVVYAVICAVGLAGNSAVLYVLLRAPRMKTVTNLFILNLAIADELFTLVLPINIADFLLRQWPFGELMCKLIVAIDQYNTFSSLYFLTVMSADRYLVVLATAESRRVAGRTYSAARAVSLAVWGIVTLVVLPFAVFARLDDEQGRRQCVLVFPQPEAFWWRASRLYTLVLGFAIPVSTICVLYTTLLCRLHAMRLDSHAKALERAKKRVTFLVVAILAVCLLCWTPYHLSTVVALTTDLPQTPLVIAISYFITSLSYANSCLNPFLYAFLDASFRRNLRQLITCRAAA
Sequence of LIM domain kinase 1 (P53667 whole entry, the tested form may be a part): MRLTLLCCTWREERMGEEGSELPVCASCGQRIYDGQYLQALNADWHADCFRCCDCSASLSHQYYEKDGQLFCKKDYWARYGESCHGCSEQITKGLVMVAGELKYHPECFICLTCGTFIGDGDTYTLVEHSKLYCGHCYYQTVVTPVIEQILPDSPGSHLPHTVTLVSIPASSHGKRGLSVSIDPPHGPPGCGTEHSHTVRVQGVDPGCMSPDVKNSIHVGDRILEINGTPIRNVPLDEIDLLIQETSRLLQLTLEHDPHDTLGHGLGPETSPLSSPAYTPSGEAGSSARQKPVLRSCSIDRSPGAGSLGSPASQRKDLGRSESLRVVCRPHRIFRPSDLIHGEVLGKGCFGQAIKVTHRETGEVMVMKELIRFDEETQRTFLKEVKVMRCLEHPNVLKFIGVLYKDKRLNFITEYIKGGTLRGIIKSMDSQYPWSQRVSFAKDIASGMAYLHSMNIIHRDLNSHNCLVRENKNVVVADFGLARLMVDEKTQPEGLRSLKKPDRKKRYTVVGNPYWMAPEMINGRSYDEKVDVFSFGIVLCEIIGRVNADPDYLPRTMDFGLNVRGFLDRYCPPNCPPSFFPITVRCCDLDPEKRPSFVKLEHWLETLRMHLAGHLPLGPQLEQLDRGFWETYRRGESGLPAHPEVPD
Sequence of Melanin-concentrating hormone receptor 1 (Q99705 whole entry): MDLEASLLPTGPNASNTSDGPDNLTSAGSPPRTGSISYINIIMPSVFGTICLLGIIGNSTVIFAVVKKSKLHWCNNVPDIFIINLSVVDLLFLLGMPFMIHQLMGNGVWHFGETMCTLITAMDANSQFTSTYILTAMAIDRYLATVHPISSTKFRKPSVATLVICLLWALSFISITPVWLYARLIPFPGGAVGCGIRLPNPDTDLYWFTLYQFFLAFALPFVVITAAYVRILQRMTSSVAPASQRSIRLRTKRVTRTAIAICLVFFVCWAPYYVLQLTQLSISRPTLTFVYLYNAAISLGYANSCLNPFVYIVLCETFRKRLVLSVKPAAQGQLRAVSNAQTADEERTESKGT
Sequence of Aurora kinase A (O14965 whole entry): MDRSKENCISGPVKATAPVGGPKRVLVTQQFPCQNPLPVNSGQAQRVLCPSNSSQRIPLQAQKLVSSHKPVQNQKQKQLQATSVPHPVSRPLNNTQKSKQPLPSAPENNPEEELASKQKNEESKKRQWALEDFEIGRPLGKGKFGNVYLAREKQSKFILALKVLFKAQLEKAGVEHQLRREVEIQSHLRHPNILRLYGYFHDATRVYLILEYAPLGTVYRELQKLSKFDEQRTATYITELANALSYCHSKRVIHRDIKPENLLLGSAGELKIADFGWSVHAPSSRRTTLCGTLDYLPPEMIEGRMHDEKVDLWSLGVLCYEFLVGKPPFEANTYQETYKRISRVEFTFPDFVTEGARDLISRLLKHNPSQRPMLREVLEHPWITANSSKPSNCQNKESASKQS
Sequence of Vascular endothelial growth factor receptor 2 (P35968 whole entry): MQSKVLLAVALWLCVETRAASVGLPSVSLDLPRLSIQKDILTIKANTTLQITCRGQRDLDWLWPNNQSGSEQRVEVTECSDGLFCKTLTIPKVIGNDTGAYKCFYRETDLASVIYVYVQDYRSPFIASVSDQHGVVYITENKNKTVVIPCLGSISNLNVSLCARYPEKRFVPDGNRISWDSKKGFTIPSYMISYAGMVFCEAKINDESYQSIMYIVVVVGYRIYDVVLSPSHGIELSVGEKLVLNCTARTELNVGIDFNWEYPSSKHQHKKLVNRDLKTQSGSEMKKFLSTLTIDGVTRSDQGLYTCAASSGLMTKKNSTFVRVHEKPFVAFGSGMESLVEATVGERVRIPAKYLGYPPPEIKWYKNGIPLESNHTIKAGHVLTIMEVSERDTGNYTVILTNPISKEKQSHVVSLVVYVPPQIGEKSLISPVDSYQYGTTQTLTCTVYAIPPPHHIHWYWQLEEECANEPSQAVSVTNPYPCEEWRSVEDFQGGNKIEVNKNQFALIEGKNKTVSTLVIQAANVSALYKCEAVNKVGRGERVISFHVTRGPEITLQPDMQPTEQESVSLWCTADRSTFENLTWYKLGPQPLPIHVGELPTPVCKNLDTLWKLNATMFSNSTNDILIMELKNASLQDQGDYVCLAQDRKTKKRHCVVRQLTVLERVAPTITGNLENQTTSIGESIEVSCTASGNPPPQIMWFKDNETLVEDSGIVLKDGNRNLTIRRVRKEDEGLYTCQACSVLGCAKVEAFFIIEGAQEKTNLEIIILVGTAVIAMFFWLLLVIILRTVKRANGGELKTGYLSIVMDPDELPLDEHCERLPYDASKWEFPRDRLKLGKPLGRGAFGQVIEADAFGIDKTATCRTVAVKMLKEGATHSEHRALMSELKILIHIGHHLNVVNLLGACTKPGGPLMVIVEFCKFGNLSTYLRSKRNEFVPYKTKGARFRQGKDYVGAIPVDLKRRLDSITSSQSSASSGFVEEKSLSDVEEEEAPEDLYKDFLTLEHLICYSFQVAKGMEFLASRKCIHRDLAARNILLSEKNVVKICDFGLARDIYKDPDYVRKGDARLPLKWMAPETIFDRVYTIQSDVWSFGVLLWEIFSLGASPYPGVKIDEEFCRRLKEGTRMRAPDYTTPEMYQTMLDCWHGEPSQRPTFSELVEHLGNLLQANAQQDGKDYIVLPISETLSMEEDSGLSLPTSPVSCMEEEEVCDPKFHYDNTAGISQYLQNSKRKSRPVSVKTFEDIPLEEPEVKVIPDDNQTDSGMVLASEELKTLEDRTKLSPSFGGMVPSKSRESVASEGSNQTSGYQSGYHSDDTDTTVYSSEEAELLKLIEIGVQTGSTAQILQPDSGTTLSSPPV
Sequence of Glycogen synthase kinase-3 beta (P49841 whole entry): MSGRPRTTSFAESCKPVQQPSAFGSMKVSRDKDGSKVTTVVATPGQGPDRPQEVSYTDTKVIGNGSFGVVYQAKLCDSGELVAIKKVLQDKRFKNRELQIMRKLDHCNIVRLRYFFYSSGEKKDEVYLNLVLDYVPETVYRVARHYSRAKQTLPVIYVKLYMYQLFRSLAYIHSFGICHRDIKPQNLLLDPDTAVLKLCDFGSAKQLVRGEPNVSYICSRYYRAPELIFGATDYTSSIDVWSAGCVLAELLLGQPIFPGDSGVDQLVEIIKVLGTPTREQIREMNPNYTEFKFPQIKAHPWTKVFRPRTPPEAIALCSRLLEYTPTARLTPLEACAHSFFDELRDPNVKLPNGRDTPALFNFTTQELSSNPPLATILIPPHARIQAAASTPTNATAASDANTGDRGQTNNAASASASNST
Sequence of Aurora kinase B (Q96GD4 whole entry): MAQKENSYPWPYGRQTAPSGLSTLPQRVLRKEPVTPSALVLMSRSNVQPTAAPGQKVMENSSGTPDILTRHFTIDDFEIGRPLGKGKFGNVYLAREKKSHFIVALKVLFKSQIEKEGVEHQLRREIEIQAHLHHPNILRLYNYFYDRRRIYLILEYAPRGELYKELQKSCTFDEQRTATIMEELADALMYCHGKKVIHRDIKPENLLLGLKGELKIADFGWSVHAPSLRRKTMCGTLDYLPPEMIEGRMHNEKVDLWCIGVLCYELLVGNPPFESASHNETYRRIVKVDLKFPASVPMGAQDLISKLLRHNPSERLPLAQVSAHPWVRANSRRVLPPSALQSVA

For the molecule `CCOC(=O)C(=Cc1ccc(-n2ccnc2)cc1)C(=O)OCC`, the IC50 (on Melanocortin receptor 4; in assay [2]) was > 64.6 µM (inactive) throughout. For the same molecule, the AC50 in assay [1] is 9.38 µM (active); in assay [3], 2.95 µM (active).
With `Cc1ccc([C@@H]2CC=C(C(=O)O)[C@H](c3cccc(Cl)c3)N2S(=O)(=O)c2ccccc2C)cc1`, the IC50 is 601 nM (active) in assay [4]; 4.6 µM (active) in assay [5]; 18.7 µM (inactive) in assay [6]; 3.9 µM (active) on Orexin receptor type 2 [7]; > 66.2 µM (inactive) in the assay with CHO-K1; 670 nM (active) at Orexin receptor type 2 [8].
For `Fc1ccc(Nc2ncnc(Nc3ccc4[nH]ncc4c3)n2)cc1`, the inhibition constant (Ki) in assay [9] was 126 nM (active); on Wee1-like protein kinase, > 3.16 µM (inactive).
As for `CCS(=O)(=O)Nc1ccc2c(c1)C(=NO)c1ccccc1-2`, the values for the Ki (on Aurora kinase B; on Aurora kinase A; in assay [10]) were 31.6 nM (active), 631 nM (active) and 3.16 µM (active), respectively.
For `CCOC(=O)C(C#N)c1c(Cl)cnn(Cc2cccc3ccccc23)c1=O` (stereo not given), the IC50 in assay [11] is 7.76 µM (active); in [12] it was 571 nM (active).
In the case of `O=c1sn(-c2ccc3c(c2)OCO3)c(=O)n1Cc1ccccc1`, the Ki in assay [13] is 2 µM (active); in assay [14] it was 1.26 µM (active); in assay [15], 3.16 µM (active).
`CCc1ccc(NC(=O)c2cnn3c(-c4ccccc4)ccnc23)cc1`: the Ki on LIM domain kinase 1 is 3.16 µM (active).
Take `O=C(CSc1nc2ccccc2c(=O)[nH]1)NC1CCCC1`: the CC50 in [16] and in [17] was > 100 µM (active) throughout.
On to `O=C(Nc1ccsc1C(=O)NC1CCCCC1)c1ccc(F)cc1`, for which the AC50 is 6.28 µM (active) in assay [18] and 24.9 µM (active) in assay [19].
